Measurements from US8367659B2, “Oxazinyl isoflavonoid compounds, medicaments and use” (Marshall Edwards, Inc., priority 2007, dated 2013).

Assays:
CP70 = experiment: Anti-cancer activity, CP70 ovarian cancer cells (MTT); format: cell-based; settings: 120 h, 5 days
unstimulated lymphocytes = experiment: Unstimulated lymphocytes, viable cell number (MTT); format: cell-based, Skh-1:HR 1 (hairless) mice; settings: 10 μM; absence of mitogenic stimulation
Description: Male Skh-1:HR 1 (hairless) mice, approximately six weeks old were killed by cervical dislocation. Single cell suspensions were made from the spleen and erythrocytes were lysed in buffer (0.14 M NH4Cl, 17 mM Tris, pH 7.2). The remaining splenocytes were cultured in RPMI-1640 (Gibco) supplemented with 10% (v:v) FBS, 200 mM L-glutamine, penicillin/streptomycin and […] 2-mercaptoethanol. Splenocytes were added to quadruplicate wells containing either concanavalin A (ConA, Sigma-Aldrich—0.4 μg/well), LPS (Sigma-Aldrich—1 μg/well) or no mitogen, as well 10 μM of test compound in DMSO. Samples were analysed after 3 days incubation at 37° C. in 5% CO2 in air. Methylthiazoletetrazolium (MTT) is bioreduced by viable cells into a coloured formazan product that is soluble in DMSO. Thus the quantity of formazan product is directly proportional to the number of living cells in culture, and can be measured using a spectrophotometer at 570 nm. MTT was added to each well, incubated for a further 4 hrs and then colour developed with 0.04 N HCl in isopropanol. Culture supernatants were stored after collection at −80° C. and analysed by ELISA (BD Biosciences) for IFN-γ (a Th-1 cytokine) and for T cells alone, IL-6 (a Th-2 cytokine).

A10 smooth muscle cells = experiment: Proliferation of A10 smooth muscle cells from the media of rat aorta; format: cell-based; settings: A10, 72 h, three days, read-out: IC50, inhibition of proliferation in A10 cells
Description: The effect of test compounds on human umbilical vein smooth muscle cells (HUVSMC), was examined. Cells, tissue explants from a neonate (HRI—passage 2), were seeded into 96 well plates at 1×10^3 cells per well, and allowed to attach for 24 hours. They were then washed twice and incubated in medium without foetal calf serum (FCS) for 24-48 hours to serum-starve them. Test compounds were prepared in medium without FCS and added to the plates and incubated for one hour. Medium with FCS was added to give a final concentration of 10% and the plates incubated for 4-5 days until the controls were just confluent.
The effect of test compounds on rat aortic smooth muscle cell line (A7r5) and another cell line from the media of rat aorta (A10) was examined. The methodology was the same as for HUVSMC, except that the cells were treated with compound for three days.

THP-1 cells = experiment: Cell viability of THP-1 cells in the NFκB assay; format: cell-based, human; settings: 50 μM and 100 μM
Description: In brief, genetically modified THP-1 cells were seeded into wells of a 96-well plate (50×10^3 cells/well) in the presence of RPMI 1640 medium (70 μl). TNFα was added to each well (10 μl) to give a final concentration of 7.5 ng/ml. Dialyzed bovine serum was added (10 μl). Compounds dissolved in DMSO (10 μL) were then added (5 wells for each compound). Each plate contained a no-cell control (4 wells), a no-serum control (4 wells) and two serum controls. Plates were incubated for 5 h at 37° C. to allow for NFκB-stimulated beta-lactamase production. LiveBLAzer™ FRET B/G Substrate (CCF4-AM) substrate was then added to assay. CCF4-AM is a Forster resonance energy transfer (FRET) based substrate for beta-lactamase developed by Invitrogen Corp. Once CCFA-AM enters a cell, it is converted to negatively charged CCF4 by endogenous esterases. Excitation of this substrate at 409 nm leads to efficient FRET between the coumarin and fluorescein moieties, resulting in a green fluorescence detectable at 530 nm. The presence of beta-lactamase leads to cleavage of CCF4 and results in a loss of FRET, resulting in a robust blue fluorescent signal detectable at 460 nm. Thus, activity of beta-lactamase (a marker of NFκB-promoter activity) is measured as a product to substrate ratio (blue/green fluorescence ratio: 460 nm/530 nm). […]

ICAM-1 = experiment: TNFα-induced ICAM-1 expression in human arterial endothelial cells (ELISA); format: cell-based
Description: Inhibition of TNFα-stimulated endothelial cell activation by compounds was assessed by measuring surface expression of cell adhesion molecules with an ELISA method. Human arterial endothelial cells (HAEC) in growth medium (Cell Applications Inc.) were seeded into 96-well plates at a density of 10,000 cells per well. Plates were incubated overnight at 37° C. in a humidified incubator to allow for cells to become confluent. On the morning of the experiment, TNFα (10 μl, 2 ng/ml) was added to each well, which contained 100 μl of medium. Compounds were diluted in DMSO-containing medium (2.5% DMSO) to give a compound concentration of 100 and 300 μM. Compounds were added to wells so that final concentrations were 10 and 30 μM. DMSO-containing medium alone was added to zero concentration control wells. All samples were measured in quadruplicate (4 wells per treatment).
After incubation with compound, medium was removed and cells were probed with either non-specific IgG or specific mouse antibodies against E-selectin, ICAM or VCAM (BD Biosciences—0.1 μg in 100 μL buffered saline with 10% heat-inactivated human serum). Adhesion molecule expression was detected by addition of sheep anti-mouse antibody/horseradish peroxidase conjugate. […] Optical density was measured at 405 nm with an ELISA reader (Titertek Multiscan, Flow Laboratories). […]

| IC50 (CP70) | SMILES | reduction of viable cell numbers (unstimulated lymphocytes) | IC50 (A10 smooth muscle cells) | cell viability (THP-1 cells) | inhibition of ICAM expression (ICAM-1; TNFα-stimulated HAEC, 4 hrs, FIG. 18) | effect on TNFα-induced ICAM-1 expression (ICAM-1; HAEC, 10 μM found most appropriate for comparing) |
| --- | --- | --- | --- | --- | --- | --- |
| 5.51 ± 2.6 µM | Oc1ccc(C2=Cc3cc4c(cc3OC2)OCN(Cc2ccccc2)C4)cc1 [Compound 1, 4-(3-Benzyl-2,3,4,8-tetrahydrochromeno[6,7-e][1,3]oxazin-7-yl)phenol] | approximately 50% | 11 µM | reduced cell viability | 10-50% |  |
| 8.1 ± 3 µM | CC(c1ccccc1)N1COc2cc3c(cc2C1)C=C(c1ccc(O)cc1)CO3 (stereo not shown) [Compound 2, 4-(3-(1-Phenylethyl)-2,3,4,8-tetrahydrochromeno[6,7-e][1,3]oxazin-7-yl)phenol] | approximately 50% |  | reduced cell viability |  |  |
|  | Oc1cccc(C2=Cc3ccc(O)cc3OC2)c1 [Compound 37-DHE, 3′,7-dihydroxy-isoflav-3-ene, reference compound] |  | 31 µM |  |  | less pronounced |
